# Literature values, collected in patent US20140128469A1, “[…]-BUTYL BUMETANIDE” (CONCERT PHARMACEUTICALS INC., priority 2011, published 2014).
# Experiments:
# models of migraine = conditions: in vivo
# [1] = preclinical models
# [2] = preclinical toxicology studies, see WO 2010/085352
# [3] = biological target: T1, Na+K+2Cl— co-transporter (NKCC2) (Homo sapiens, UniProt Q13621)
# T1 sequence (Q13621 1-1099): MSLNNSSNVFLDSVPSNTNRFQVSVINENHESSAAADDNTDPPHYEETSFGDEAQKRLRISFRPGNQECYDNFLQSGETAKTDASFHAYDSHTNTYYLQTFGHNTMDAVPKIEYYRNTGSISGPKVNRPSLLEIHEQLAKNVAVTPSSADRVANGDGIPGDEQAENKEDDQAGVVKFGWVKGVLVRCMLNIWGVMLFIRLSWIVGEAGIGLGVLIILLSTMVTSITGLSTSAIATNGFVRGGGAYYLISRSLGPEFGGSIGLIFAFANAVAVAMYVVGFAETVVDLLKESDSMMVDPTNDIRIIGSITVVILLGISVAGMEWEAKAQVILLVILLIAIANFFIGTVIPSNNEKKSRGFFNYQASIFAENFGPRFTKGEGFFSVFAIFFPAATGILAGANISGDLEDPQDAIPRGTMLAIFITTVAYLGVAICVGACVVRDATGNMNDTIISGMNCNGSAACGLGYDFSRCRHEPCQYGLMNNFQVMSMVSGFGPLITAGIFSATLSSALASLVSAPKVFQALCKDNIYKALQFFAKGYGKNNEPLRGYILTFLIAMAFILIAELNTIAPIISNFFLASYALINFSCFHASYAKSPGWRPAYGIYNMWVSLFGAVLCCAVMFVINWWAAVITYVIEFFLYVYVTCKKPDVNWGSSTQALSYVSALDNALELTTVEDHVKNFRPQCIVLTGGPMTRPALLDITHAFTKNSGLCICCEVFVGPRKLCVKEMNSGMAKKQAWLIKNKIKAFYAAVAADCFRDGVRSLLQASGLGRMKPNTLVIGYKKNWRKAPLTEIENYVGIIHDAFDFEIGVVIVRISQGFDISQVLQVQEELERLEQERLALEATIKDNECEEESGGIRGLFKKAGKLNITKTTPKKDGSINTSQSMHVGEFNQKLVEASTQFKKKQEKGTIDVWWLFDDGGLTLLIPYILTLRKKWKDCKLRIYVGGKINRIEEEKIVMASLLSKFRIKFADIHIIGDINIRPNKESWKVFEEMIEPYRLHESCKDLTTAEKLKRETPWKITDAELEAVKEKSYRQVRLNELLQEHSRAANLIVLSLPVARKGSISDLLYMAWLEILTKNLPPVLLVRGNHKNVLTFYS
# [4] = test system: models of neuropathic and nociceptive pain; conditions: in vivo
# [5] = biological target: T2, Na+K+2Cl— co-transporter (NKCC1) (Homo sapiens, UniProt P55011)
# T2 sequence (P55011 1-1212): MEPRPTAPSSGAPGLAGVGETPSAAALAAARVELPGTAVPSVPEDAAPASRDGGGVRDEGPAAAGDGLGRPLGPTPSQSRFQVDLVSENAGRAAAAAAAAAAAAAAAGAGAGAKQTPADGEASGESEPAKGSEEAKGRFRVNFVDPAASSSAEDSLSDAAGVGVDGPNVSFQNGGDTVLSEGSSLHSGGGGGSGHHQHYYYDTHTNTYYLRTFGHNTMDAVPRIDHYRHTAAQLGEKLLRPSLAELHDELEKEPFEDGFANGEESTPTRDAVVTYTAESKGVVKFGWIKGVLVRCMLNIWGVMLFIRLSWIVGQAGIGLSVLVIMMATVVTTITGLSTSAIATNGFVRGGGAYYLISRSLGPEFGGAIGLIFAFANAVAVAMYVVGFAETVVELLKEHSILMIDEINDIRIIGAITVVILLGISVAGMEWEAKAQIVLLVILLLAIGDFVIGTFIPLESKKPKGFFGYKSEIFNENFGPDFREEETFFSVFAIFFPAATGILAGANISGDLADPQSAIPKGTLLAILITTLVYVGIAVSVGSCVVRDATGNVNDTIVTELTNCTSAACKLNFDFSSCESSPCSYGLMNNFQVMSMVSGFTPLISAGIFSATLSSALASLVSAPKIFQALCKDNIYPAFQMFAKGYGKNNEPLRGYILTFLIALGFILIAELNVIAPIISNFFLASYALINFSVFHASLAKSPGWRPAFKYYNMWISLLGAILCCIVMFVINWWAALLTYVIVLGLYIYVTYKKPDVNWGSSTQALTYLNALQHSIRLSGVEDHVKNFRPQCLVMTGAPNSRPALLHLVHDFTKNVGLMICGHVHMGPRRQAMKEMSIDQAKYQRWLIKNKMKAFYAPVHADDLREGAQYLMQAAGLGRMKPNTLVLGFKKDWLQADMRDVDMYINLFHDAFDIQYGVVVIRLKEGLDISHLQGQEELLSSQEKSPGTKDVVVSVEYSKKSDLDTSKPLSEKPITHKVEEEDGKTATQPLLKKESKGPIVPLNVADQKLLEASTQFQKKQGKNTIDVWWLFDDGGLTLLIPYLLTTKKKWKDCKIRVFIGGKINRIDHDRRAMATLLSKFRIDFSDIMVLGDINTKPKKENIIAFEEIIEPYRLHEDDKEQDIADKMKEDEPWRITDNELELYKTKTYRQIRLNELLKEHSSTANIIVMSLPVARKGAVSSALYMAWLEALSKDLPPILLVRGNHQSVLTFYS
structure (smiles),measurement,setting,value
CCCCN(CCCC)c1cc(C(=O)O)cc(S(N)(=O)=O)c1Oc1ccccc1 [N-butyl bumetanide],efficacy in models of migraine,models of migraine,effective
same,diuresis,[1],does not cause diuresis
same,GABAA modulation,GABAA,subtype-selective GABAA modulatory actions
same,therapeutic safety margin,[2],large therapeutic safety margin
same,amelioration of seizures,models of epilepsy; epilepsy models resistant to currently-marketed anti-epileptic drugs,effective in ameliorating seizures
same,efficacy in models of epilepsy,models of epilepsy; in vivo,effective
same,action on NKCC2,[3],does not act on
same,efficacy in models of neuropathic and nociceptive pain,[4],effective
same,action on NKCC1,[5],does not act on
